Experimental data taken from PMC10313808, “Lipoxygenase inhibitory synthetic derivatives of methyl gallate regulate gene expressions of COX-2 and cytokines to reduce animal model arthritis” (Scientific Reports, 2023).

Experiments:
FCA-induced arthritis [1] = test: FCA-induced arthritis: hind paw volume; format: in vivo, Sprague–Dawley (SD) rats; settings: FCA rats, 10 mg.kg^−1 oral
Protocol: (§1) Chronic inflammation induced by Freund's Complete Adjuvant contains a suspension of heat-killed Mycobacterium tuberculosis in the vehicle (Chondrex, Labex Corporation). 100 μL of FCA (10 mg/mL) was injected intradermally to the left-hand paw of SD rats[42]. […] Induction of inflammation became chronic by 9–12 days and then rats were divided into 7 groups having 6 rats in each group. Everything possible was done to minimize the suffering of experimental animals. Minimum number of rats only were drafted to generate reliable data. 42 rats were randomly allocated into seven groups (6 × 7).
(§2) Group I (n = 6) served as normal rats that received an equal volume of vehicle control. Group II (n = 6) was arthritic model control treated with vehicle only. Group III (n = 6) was arthritic control which received the diclofenac (10 mg.kg^–1). Groups IV (n = 6), V (n = 6), VI (n = 6) and VII (n = 6) were treated with a low and high dose of methyl gallate (20 mg.kg^–1, 40 mg.kg^–1) and MGSD 1 (1 mg.kg^–1, 10 mg.kg^–1). The drugs were orally administered through oral gavage daily in PBS vehicle for 28 days.
By a plethysmometer the rat hind paw volume was measured from the initial day to final day (28th day) with successive intervals of 9 days, before and after FCA injection. The inhibition was calculated by the formula given below. Percentageinhibition=1-Meanchangesinpawvolumeoftreatedrat/Meanchangesinpawvolumeofuntreatedrat×100.

[2] = FCA-induced arthritis: body weight measurement; format: in vivo, Sprague–Dawley (SD) rats; settings: FCA rats, 10 mg.kg^−1 oral
Protocol: as §1, §2
The bodyweight of the animals was measured every day after the commencement of the experiment till the end (28th day). The weight change was calculated using the formula: Weightchange%=Wt-Wo/[…], where Wt is the weight of the animal at time t
Wo is the weight of the animal on the initial day.

[3] = tested on: ankle joints, liver, spleen, and thymus; test: FCA-induced arthritis: histological analysis; format: in vivo, Sprague–Dawley (SD) rats; settings: FCA rats
Protocol: The animals used for the FCA induced arthritis were euthanized at the end of the experiment and the ankle joints were separated from the hind paw and fixed in 10% buffered formalin. Similarly, liver, spleen, and thymus were also dissected carefully and immersed in fixative, and after 24 h each specimen were decalcified in 5% nitric acid, followed by embedding in paraffin wax and 4 µm thickness sections were prepared. These prepared sections were then mounted and stained with hematoxylin and[…] under brightfield compound binocular research microscope at 100X and 400X magnification and inflammation was graded.

FCA-induced arthritis [4] = test: FCA-induced arthritis: haematological parameters; format: in vivo, Sprague–Dawley (SD) rats; settings: FCA rats, 10 mg.kg^−1 oral
Protocol: as §1, §2
(§3) Blood was drawn from jugular vein[43] and collected in heparinized tubes and used for further analysis. By using Horiba 5-part hematology analyzer the blood parameters like RBC, WBC, neutrophil and hemoglobin were analyzed. Serum parameters were analyzed using Stat Fax autoanalyzer. Serum glutamic pyruvic transaminase (SGPT), serum glutamic oxaloacetic transaminase (SGOT) and alkaline phosphatase (ALP) were determined using standard diagnostic kits (Proton, Accurex).

FCA-induced arthritis [5] = test: FCA-induced arthritis: organ index (liver, spleen); format: in vivo, Sprague–Dawley (SD) rats; settings: FCA rats, 10 mg.kg^−1 oral, end of experiment
Protocol: as §1, §2
At the end of the experiments, animals were euthanized using ketamine injection. The liver and spleen were removed at the end of the experiment and weighed. The index of the organs was expressed as the percentage (%) wet weight of organ versus body weight. The organ indexes were calculated by using the following formula Organindex=Weightoforgang/Bodyweightg×100.

FCA-induced arthritis [6] = settings: FCA rats, serum, 10 mg.kg^−1 oral
Protocol: as §1, §2, §3

[7] = target: T1, Lipoxidase from Glycine max (15- LOX) (Glycine max, UniProt P08170); test: Michaelis–Menten enzyme kinetics (Lineweaver-Burk); format: biochemical; settings: for IC50: Cheng–Prusoff from Ki; for Ki: linoleic acid substrate, competitive
T1 construct: purchased Sigma (Sigma-Aldrich, UK)
T1 sequence (P08170 1-839): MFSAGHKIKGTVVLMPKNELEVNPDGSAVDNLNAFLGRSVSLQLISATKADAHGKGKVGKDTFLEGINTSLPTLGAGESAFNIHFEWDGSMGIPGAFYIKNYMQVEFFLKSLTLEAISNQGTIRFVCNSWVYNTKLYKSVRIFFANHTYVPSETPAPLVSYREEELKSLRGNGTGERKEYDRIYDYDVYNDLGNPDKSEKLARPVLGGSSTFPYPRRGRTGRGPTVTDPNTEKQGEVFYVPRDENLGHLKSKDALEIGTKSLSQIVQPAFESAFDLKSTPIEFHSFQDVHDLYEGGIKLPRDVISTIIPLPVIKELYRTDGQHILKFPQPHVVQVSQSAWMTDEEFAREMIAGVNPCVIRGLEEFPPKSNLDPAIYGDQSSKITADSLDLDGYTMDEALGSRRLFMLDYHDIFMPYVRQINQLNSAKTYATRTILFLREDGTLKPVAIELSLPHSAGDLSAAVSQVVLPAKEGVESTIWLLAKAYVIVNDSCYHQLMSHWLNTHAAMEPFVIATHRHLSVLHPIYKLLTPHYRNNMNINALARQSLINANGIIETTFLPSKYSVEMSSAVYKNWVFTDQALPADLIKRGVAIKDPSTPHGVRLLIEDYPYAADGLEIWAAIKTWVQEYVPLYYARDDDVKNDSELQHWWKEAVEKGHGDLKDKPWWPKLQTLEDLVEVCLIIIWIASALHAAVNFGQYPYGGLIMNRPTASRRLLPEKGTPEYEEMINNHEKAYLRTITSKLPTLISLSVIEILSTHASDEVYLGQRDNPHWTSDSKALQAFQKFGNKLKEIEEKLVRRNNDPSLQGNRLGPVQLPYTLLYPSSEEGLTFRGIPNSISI
Protocol: To identify the mode of inhibition, enzyme kinetics assay was performed with MGSDs. For the kinetic analysis different substrate concentrations of 18, 27, 36, 45, 54, 63 µM were prepared in 0.2 mM borate buffer (H 9)[16]. The assay mixture was made of 50 µL of LOX, 50 µL of the test solution and different concentrations of the substrate. The final volume was made upto 2 mL with corresponding borate buffer quantity. The activity of LOX was measured by the formation of […], which was monitored at 234 nm on spectrophotometer, (HITACHI U 2900, Japan). The reaction was measured at a time span of 300 s. The same experiment was repeated in the presence of 0.1, 0.08 and 0.06 μM concentration of MGSDs. The Line Weaver-Burk plot was constructed and Michaelis–Menten constant (Km) and Maximal Velocity (Vmax) were determined from the plot. From the Km and Vmax obtained, the inhibitor constant, Ki was calculated using the following equation derived from the Michaelis–Menten Equation: Km′=Km1+I0/Ki. The IC50was calculated using the Cheng–Prusoff equation, Ki=IC50/1+S/Km.

[8] = target: T1, Lipoxidase from Glycine max (15- LOX); test: In-vitro LOX enzyme inhibition assay (spectrophotometric, 234 nm); format: biochemical; settings: 20 μM compound
Protocol: The LOX inhibition assays were performed with MGSDs. The inhibitory activity was measured by a modified spectrophotometric method[16],[39]. The plant LOX pathway is in many respects equivalent to the ‘arachidonic acid cascades’ in animals. For this reason, the in vitro inhibition of LOX constitutes a good model for the screening of compounds with anti-inflammatory potential[40],[41]. LOX (Lipoxidase from Glycine max (15- LOX); EC 1.13.11.12) type I-B (Soybean), and linoleic acid were purchased from Sigma (Sigma-Aldrich, UK) and used without further purification. Enzyme solution of 1.03 µM was prepared in 0.2 mM borate buffer, pH 8.5. The substrate, linoleic acid solution of 0.3 mM was also prepared in the borate buffer at the same pH. […] The final concentration of MGSDs used for the analysis was 20 µM. The assay mixture was made of 50 µL of LOX, 50 µL of the test solution and 360 µL of the substrate. The final volume was made up to 2 mL with corresponding borate buffer quantity. The activity of LOX was measured on the formation of […], which was monitored at 234 nm on spectrophotometer, (HITACHI U 2900, Japan). The same procedure was repeated with triplicate for the confirmation of LOX inhibitory activity[16],[39].

LOX = target: T2, LOX (Glycine max, UniProt P08170); test: Fluorescence quenching studies; format: binding; settings: 296 K, pH 9; for Kd: read-out: Binding constant (K) (converted); for Quenching constant (Ksv): Stern–Volmer
T2 construct: purchased Sigma (Sigma-Aldrich, UK)
T2 sequence (P08170 1-839): T1 sequence (P08170 1-839)
Excerpt: To analyze the type of mechanism, the data of fluorescence of LOX was plotted, as relative fluorescence intensity (F0/F), against MGSDs. Here F and F0 are the fluorescence intensity in the presence and absence of MGSDs respectively. The Stern–Volmer constants were obtained from the plot by linear regression using the expression: F0/F=1+KsvQ.
Ksv is the Stern–Volmer constant and [Q] is the respective concentration of derivatives. Ksv which depicts the binding affinity between the fluorophore (protein) and quencher (ligand), were obtained from the slopes of the plot (Supplementary Fig. 15). […] The Fluorescence quenching data provided information about the binding constant (K), the number of binding sites (n), and the values could be arrived by applying the equation. Log F0-F/F=log K+nlogQ.
The Fluoromax-4 spectrophotometer (Spectra-NanoLED source 278) was used for studying fluorescence quenching of the compound. Bandwidth set at 5 nm for both excitation and emission spectra. The wavelength was set for excitation at 280 nm and the emission was recorded at 290–450 nm using 1.0 cm cell at 296 K temperature. The LOX with a concentration of 7 μM, dissolved in borate buffer at pH 9 and ligands at the concentrations of 35, 70, 105, 140, 175, 210, 245 and 280 μM were used for the experiment.

**Q.** With `O=C(O)Cc1ccccc1Nc1c(Cl)cccc1Cl` [Diclofenac] as the compound, how does the “Percentage of inhibition (paw oedema)” value (FCA-induced arthritis [1]) read?
**A.** Its value is 59%.

**Q.** And the “Paw volume (mL) (mean ± SEM) 9th day” value (FCA-induced arthritis [1]; 9th day)?
**A.** The value was 1.44 ± 0.16 mL.

**Q.** What about the “Paw volume (mL) (mean ± SEM) 18th day” value (FCA-induced arthritis [1]; 18th day) of the same compound?
**A.** Its value is 0.8 ± 0.22 mL.

**Q.** What about the “Paw volume (mL) (mean ± SEM) 28th day” value (FCA-induced arthritis [1]; 28th day) of the same compound?
**A.** The value was 0.73 ± 0.08 mL.

**Q.** And the “Paw volume (mL) (mean ± SEM) Initial day” value (FCA-induced arthritis [1]; initial day)?
**A.** The value was 0.56 ± 0.05 mL.

**Q.** And the “Percentage of inhibition (paw oedema)” value (FCA-induced arthritis [1]; listed as diclofenac)?
**A.** The value was 59%.

**Q.** What about the “Percentage of body weight (Mean ± SEM) 9th day” value ([2]; 9th day) of the same compound?
**A.** The value was 9.9 ± 0.07%.

**Q.** What about the “Percentage of body weight (Mean ± SEM) 18th day” value ([2]; 18th day) of the same compound?
**A.** Its value is 36.55 ± 1.10%.

**Q.** What about the “Percentage of body weight (Mean ± SEM) 28th day” value ([2]; 28th day) of the same compound?
**A.** Its value is 41.52 ± 1.36%.

**Q.** And the “Histology of ankle joints” value ([3]; 10 mg.kg^-1)?
**A.** The value was “synovial joint was seen free of infiltration and oedema”.

**Q.** And the Histology of liver ([3]; dose not stated)?
**A.** Its Histology of liver is “hepatocyte arrays and central sinusoid area were seen to regain normalcy and a few necrotic cells were still visible”.

**Q.** And the Histology of spleen ([3]; dose not stated)?
**A.** The Histology of spleen was “periarteriolar lymphoid sheath regained normalcy”.

**Q.** What about the Histology of thymus ([3]; methyl gallate high dose) of the same compound?
**A.** The Histology of thymus was “reduction in the number of neutrophils”.

**Q.** And the Hb (FCA-induced arthritis [4])?
**A.** The Hb was 14.3 ± 0.4 g/dL.

**Q.** What about the Lymphocyte (FCA-induced arthritis [4]) of the same compound?
**A.** The Lymphocyte was 73.2 ± 1.64%.

**Q.** And the Neutro phil (FCA-induced arthritis [4])?
**A.** Its Neutro phil is 11.5 ± 0.15%.

**Q.** And the RBC (FCA-induced arthritis [4])?
**A.** Its RBC is 7.92 ± 0.18^# 10^6/mm^3.

**Q.** What about the WBC (FCA-induced arthritis [4]) of the same compound?
**A.** Its WBC is 9.25 ± 0.10^# 10^3/mm^3.

**Q.** What about the “Organ index (%) Liver” value (FCA-induced arthritis [5]) of the same compound?
**A.** The value was 3.18 ± 0.11%.

**Q.** And the “Organ index (%) Spleen” value (FCA-induced arthritis [5])?
**A.** Its value is 0.21 ± 0.01%.

**Q.** And the SGOT (FCA-induced arthritis [6])?
**A.** Its SGOT is 210 ± 1.73 IU/L.

**Q.** And the SGPT (FCA-induced arthritis [6])?
**A.** Its SGPT is 91 ± 1.20 IU/L.

**Q.** What does the source list for `O=C(O)COc1cc(C(=O)O)cc(O)c1OCC(=O)O` [MGSD 2, 2,2′-((5-carboxy-3-hydroxy-1,2-phenylene)bis (oxy))diacetic acid]?
**A.** IC50 [7]: 340 nM; Ki [7]: 100 nM; inhibition at 20 µM [8]: 68 ± 4.32%; Kd (LOX): 439000 nM; Quenching constant (Ksv) (LOX): 6300 M⁻¹

**Q.** Which IC50 ([7]; abstract) does the source give for `O=C(O)COc1cc(C(=O)O)cc(O)c1O` [MGSD 3, (3-(carboxymethoxy)-4,5-dihydroxybenzoic acid] here?
**A.** Its IC50 is 226 nM.

**Q.** And the Ki [7]?
**A.** Its Ki is 60 nM.

**Q.** What about the inhibition at 20 µM [8] of the same compound?
**A.** Its inhibition at 20 µM is 65 ± 2.65%.

**Q.** What about the Kd (LOX) of the same compound?
**A.** Its Kd is 485000 nM.

**Q.** And the “Quenching constant (Ksv)” value (LOX)?
**A.** Its value is 7800 M⁻¹.
